Here are results for two molecules from US20200056220A1, “GENERATION OF DATA FOR USE WITH ANTIMICROBIALS” (GeneFluidics, Inc., priority 2018, published 2020).

Read-outs that look alike come from different tables or passages of the source.

The subject of the assay is E. coli. As to conditions: for average current signal of the four sensors, base susceptibility test: 0 minutes susceptibility culture time, sample diluted to 5×10^5 CFU/mL, −250 mV; for average current signal of the four sensors, base susceptibility test / current of the 60 minute test sample: 0.4 μg antibiotic in 100 μL Mueller-Hinton broth. As for the experimental part:
In an antimicrobial susceptibility testing phase, a local antibiogram can be used to identify antibiotics for treating the pathogen identified in Example 1. […] Susceptibility cultures can be started. […] A second susceptibility culture including imipenem can be generated by diluting a portion of the raw sample to 5×10^5 CFU/mL and distributing the result into a vial with a 0.4 μg of a lyophilized version of the imipenem and 100 μL of culture media (Mueller-Hinton broth).
The imipenem susceptibility test sample can be used to generate an imipenem test sample shortly after the imipenem susceptibility culture was started. The Proteus automated system can begin to prepare a test sample from the imipenem susceptibility test sample by transferring 30 μL of the imipenem susceptibility test sample to a microcentrifuge vial in the machine. Then, the Proteus automated system can add 12 μL of 1M NaOH to the 30 μL sample. This sample can be incubated at room temperature for 2 minutes. The Proteus system can then add 8 μL of 1M HCl. Ten microliters of the result can be placed on each of 4 sensors of the 16 available on the GeneFluidics, Inc. 16X EC chip. This chip can be incubated in the Proteus machine for 11 minutes at 43° C. After completion of this incubation, the chip can be washed and dried by Proteus. Ten microliters of 0.5 U/mL anti-fluorescein horseradish peroxidase (HRP) Fab fragments (Roche; diluted in 1.0% casein in 1 M phosphate-buffered saline, pH 7.4) can be injected into the sensor chambers and incubated for 2 minutes at 25° C. The final reagent addition can be 40 μL of 3,3′,5,5′-tetramethylbenzidine (TMB)-H2O2 solution (K-Blue Low Activity TMB Substrate; Neogen, Lexington Ky.) and incubated for 30 seconds to provide the imipenem test sample.
Then, the Proteus automated system can add 12 μL of 1M NaOH to the 30 μL sample. This sample can be incubated at room temperature for 2 minutes. The Proteus system can then add 8 μL of 1M HCl. Ten microliters of the result can be placed on each of 4 sensors of the 16 available on the GeneFluidics, Inc. 16X EC chip. This chip can be incubated in the Proteus machine for 11 minutes at 43° C. After completion of this incubation, the chip can be washed and dried by Proteus. Ten microliters of 0.5 U/mL anti-fluorescein horseradish peroxidase (HRP) Fab fragments (Roche; diluted in 1.0% casein in 1 M phosphate-buffered saline, pH 7.4) can be injected into the sensor chambers and incubated for 2 minutes at 25° C.
The test samples were tested for concentration using a test that served as the base susceptibility test or the zero susceptibility culture time test. For instance, a Helios potentiostat from GeneFluidics, Inc. was connected to the electrodes of the sensor chips and a potential of −250 mV was applied across the electrodes for one minute. During this time, the current generated by the electrochemical reaction was measured by the potentiostat. The average current measured in the final 10 seconds of the potentiostat reading constituted the final result of the assay.
The process that was used to prepare the test samples for the base susceptibility tests was to be used to generate test samples from each of the susceptibility cultures at 60 minutes, and 90 minutes. Each of the test samples were tested as described above.

[1] abbreviates: 60 minutes susceptibility culture time.

`C[C@@H](O)[C@H]1C(=O)N2C(C(=O)O)=C(SCCN=CN)C[C@H]12` [imipenem]: the “average current signal of the four sensors, base susceptibility test” value was 30 nA. Further, under setting [1], the “increase over the current level from base susceptibility test” value (“increase over the current level” for short) is 500% and the “current of the 60 minute test sample” value was 180 nA.

As to `O=C(O)c1cn(C2CC2)c2cc(N3CCNCC3)c(F)cc2c1=O` [ciprofloxacin], the “average current signal of the four sensors, base susceptibility test” value was 30 nA. The “reported result (resistant / susceptible to the concentration of antimicrobial in the culture)” value (0.4 μg antibiotic in 100 μL culture media, final report when culture was stopped) is listed as “susceptible”. Further, under setting [1], the “increase over the current level” value came out at 0% and the “current of the 60 minute test sample” value came to 30 nA. For the same molecule, the “increase over the current level” value (90 minutes susceptibility culture time) is 0%.
